Assay results published in US6949522B2, “β-2′- or 3′-halonucleosides” (Pharmasset, Inc., priority 2001, dated 2005).

What was measured:
[1] = tested on: β-actin gene; format: cell-based, human; settings: human, 7 days, 10 μM
Method: Low passage number HepG2 cells, obtained from American Tissue Culture Collection (ATCC, Manassas, Va.) were seeded at 5,000 cells/well in collagen-coated 96-well plates. Test compounds were added to the media to obtain a final concentration of 10 μM. On culture day 7, cellular nucleic acids were prepared by using commercially available columns (RNeasy 96 kit, Qiagen). […] The mitochondrial cytochrome C oxidase subunit II (COXII) gene and the β-actin or rRNA gene were amplified from 5 μL with a multiplex Q-PCR protocol using the suitable primers and probes for both target and reference (designed using the Primer Express software, Applied Biosystems); • for COXII. • sense primer 5′-[…]-3′ (Sequence 7); • probe 5′-TET-[…]-TAMRA-3′ (Sequence 8); and • antisense probe 5′-[…]-3′ (Sequence 9); • for exon 3 of β-actin (GenBank E01094): • sense primer 5′-[…]-3′ (Sequence 10); • probe 5′-6FAM-[…]-TAMRA-3′ (Sequnece 11); and • antisense probe 5′-[…]-3′ (Sequence 12).
The rRNA gene primers and probes were purchased from Applied Biosystems. Standard curves using 1-log diluted total HepG2 DNA were linear over more than 5 logs. In addition, efficiencies of target (COXII DNA) and reference (β-actin DNA or rRNA) amplification were approximately equal, because the slope of the ΔCt line (Ct β-actin minus Ct mitochondrial) was less than 0.1 (not shown). Since equal amplification efficiencies were obtained for both genes, the comparative cycle threshold (Ct) method was used to investigate potential inhibition of the mitochondrial DNA polymerase γ. The comparative Ct method uses arithmetic formulas in which the amount of target (COXII gene) is normalized to an endogenous reference (β-actin gene or rRNA gene) and is relative to a calibrator (no drug control at day 7). The arithmetic formula for this approach is given by 2-ΔΔCt (User bulletin # 2, Applied Biosystems).
In order to study the consequences of possible inhibitory effects of these compounds on host DNA polymerases, nuclear and rnitochondrial DNA levels were quantified and compared to no-treatment controls. Cells were incubated for 7 days with 10 μM of each compound, followed by total nucleic acid extractions and multiplex Q-PCR of the rRNA gene and the mitochondrial COXII gene. Nucleic acids from cells exposed to the control compounds were also amplified in multiplex for mitDNA and the β-actin gene. The results are presented in Table 4 using the comparative Ct method.

[2] = in vitro; settings: human
Method: After a three day-incubation for HepG2, or 5 days for human PBM cells, cell viability and mitochondrial activity were measured in a colorimetric assay using the MTS- or MTT dye method (Promega, Madison, Wis.).

[3] = in vitro; format: cell-based, African green monkey; settings: African green monkey, Cytotoxicity (IC50) Vero
[4] = in vitro; format: cell-based, human; settings: human
Procedure, shortened: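 Test drug applied as ten-fold serial dilutions to CEM, Vero and PHA-stimulated human PBM cells, all uninfected. After incubation, MTT added overnight, formazan solubilized 5 h and read at 570 nm as a toxicity measure.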

[5] = tested on: HBV; experiment: HBV Q-PCR in the HepG2.2.15 cell system; format: cell-based, hepatitis B virus; settings: 10 μM, HepG2.2.15 system
[6] = tested on: HIV-1LAI; settings: human PBM cells; reported in Org. Lett. 2002; read-out: anti-HIV activity EC50; cited from earlier work

Compound	Average ΔCt ± SD β-actin DNA [1]	IC50 at 5 days [2]	IC50 at 3 days [3]	IC50 at 5 days [4]	maximal reduction of HBV DNA [5]	EC50 [6]
Cc1cn([C@H]2C[C@H](N=[N+]=[N-])[C@@H](CO)O2)c(=O)[nH]c1=O [AZT, 3′-azido-3′-deoxythymidine, reference compound]	0.10 ± 0.38	> 100 µM	28 µM	> 100 µM		
Nc1ccn([C@@H]2CS[C@H](CO)O2)c(=O)n1 [Compound 3TC, (−)-β-2′,3′-dideoxy-3′-thiacytidine, reference compound]	0.11 ± 0.23	> 100 µM			0.6 logs	
Nc1ccn([C@@H]2C=C(F)[C@H](CO)O2)c(=O)n1 [Compound 10, 1-(2,3-Dideoxy-3-fluoro-β-L-glycero-pent-2-eno-furanosyl)cytosine]		> 100 µM				
Nc1ccn([C@H]2S[C@@H](CO)C=C2F)c(=O)n1 [Compound L-17, (+)-1-[(1S,4R)-2,3-dideoxy-2,3-didehydro-2-fluoro-4-thio-β-L-ribofuranosyl]-cytosine]						0.12 µM
